Assay results taken from ChEMBL document CHEMBL4145637, “Libertellenones O-S and Eutypellenones A and B, Pimarane Diterpene Derivatives from the Arctic Fungus Eutypella sp. D-1” (J Nat Prod, 2018).
Calls of active or inactive are those of the source. The calls are words filed in the database; no cut-off is given here.

Legend:
SW1990 = experiment: Cytotoxicity against human SW1990 cells after 72 hrs by CCK8 assay; format: functional, cell-based; conditions: SW1990, 72 h
PANC-1 = experiment: Cytotoxicity against human PANC1 cells after 72 hrs by CCK8 assay; format: functional, cell-based; conditions: PANC-1, 72 h
MCF7 = experiment: Cytotoxicity against human MCF7 cells after 72 hrs by CCK8 assay; format: functional, cell-based; conditions: MCF7, 72 h
HeLa = experiment: Cytotoxicity against human HeLa cells after 72 hrs by CCK8 assay; format: functional, cell-based
HCT-116 = experiment: Cytotoxicity against human HCT116 cells after 72 hrs by CCK8 assay; format: functional, cell-based; conditions: HCT-116, 72 h
HEK293 = experiment: Inhibition of TNFalpha-stimulated NFkappaB (unknown origin) expressed in HEK293 cells pretreated for 2 hrs followed by TNFalpha stimulation and measured after 6 hrs by luciferase reporter gene assay; format: cell-based; conditions: Homo sapiens
RAW264.7 = experiment: Inhibition of LPS-induced nitric oxide production in […] RAW264.7 cells at 2.5 to 20 uM pretreated for 2 hrs followed by LPS-stimulation and measured after 20 hrs by Griess assay; format: functional, cell-based

SMILES | IC50 (SW1990) | IC50 (PANC-1) | IC50 (MCF7) | IC50 (HeLa) | IC50 (HCT-116) | inhibition (HEK293) | inhibition (RAW264.7)
C=C[C@]1(C)C=C2C(=O)[C@H](O)[C@H]3[C@](C)(COC(=O)C(C)C)[C@H](OC(C)=O)C[C@H]4C[C@]43[C@@]2(O)CC1 | > 50 µM | 26.6 µM | > 50 µM | > 50 µM | > 50 µM | – | –
C=C[C@]1(C)C=C2C(=O)C(O)=C3[C@](C)(COC(=O)CC)[C@H](OC(C)=O)C[C@H]4C[C@@]34[C@@]2(O)CC1 | 1 µM | 3.6 µM | 2.9 µM | 2.6 µM | 1.9 µM | – | –
C=C[C@]1(C)C=C2C(=O)C(=O)[C@H]3[C@](C)(COC(=O)C(C)C)[C@H](OC(C)=O)C[C@H]4C[C@]43[C@@]2(O)CC1 | > 50 µM | > 50 µM | > 50 µM | > 50 µM | 29.4 µM | – | –
C=C[C@]1(C)C=C2C(=O)C(O)=C3[C@](C)(COC(C)=O)[C@H](OC(C)=O)C[C@H]4C[C@@]34[C@@]2(O)CC1 | 2.4 µM | 6 µM | 4.1 µM | 3.1 µM | 2.2 µM | – | –
C=C[C@]1(C)C=C2C(=O)C(O)=C3[C@@]4(O)[C@H](C[C@H](OC(C)=O)[C@]3(C)COC(=O)C(C)C)C[C@]24CC1 | 10.3 µM | 12.1 µM | 10.7 µM | 13.1 µM | 12.6 µM | Dose-dependent effect | Active
C=C[C@]1(C)C=C2C(=O)C(O)=C3[C@@]4(OC)[C@H](C[C@H](OC(C)=O)[C@]3(C)COC(=O)C(C)C)C[C@]24CC1 | 8 µM | 7 µM | 8.3 µM | 6 µM | 8.4 µM | Dose-dependent effect | Active
C=C[C@@]1(C)CCC2=C(C(=O)O[C@@H]3CC[C@@]4(C)COC(=O)[C@@H]4[C@]23C)[C@H]1O | > 50 µM | > 50 µM | > 50 µM | > 50 µM | > 50 µM | – | –
C=C[C@]1(C)C=C2C(=O)C(O)=C3[C@](C)(COC(=O)C(C)C)[C@H](OC(C)=O)C[C@H]4C[C@@]34[C@@]2(O)CC1 | 0.3 µM | 1.8 µM | 1.4 µM | 0.7 µM | 1 µM | – | –
C=C[C@]1(C)C=C2C(=O)C(O)=C3[C@](C)(COC(=O)C(C)C)[C@H](O)C[C@H]4C[C@@]34[C@@]2(O)CC1 | 0.8 µM | 2.1 µM | 1.1 µM | 1.2 µM | 1.3 µM | – | –
